Experimental data published in the NIST ThermoML archive (doi:10.1021/je0256028).
Numbers after ± are expanded uncertainties.

How the values were obtained:
[1] = xn = mol fraction of the nth substance listed; settings: 298.15 K, Pendant drop shape
[2] = 298.15 K; for mass density: 101.33 kPa, Vibrating tube method; for surface tension liquid-gas: Pendant drop shape

## CC(C)O [propan-2-ol] + Cc1cccc(C)c1
[1]; x1 = 1
  surface tension liquid-gas: 20.93 ± 0.31 mN/m

## Cc1ccc(C)cc1 [1,4-dimethylbenzene]
[2]; Liquid
  mass density: 856.85 ± 0.12 kg/m3
  surface tension liquid-gas: 27.89 ± 0.38 mN/m

## Cc1cccc(C)c1 [1,3-dimethylbenzene] + CC(C)O
[1]; x2 = 0
  surface tension liquid-gas: 28.36 ± 0.39 mN/m
[1]; x2 = 0.1019
  surface tension liquid-gas: 27.15 ± 0.38 mN/m
[1]; x2 = 0.1933
  surface tension liquid-gas: 26.23 ± 0.37 mN/m
[1]; x2 = 0.2999
  surface tension liquid-gas: 25.4 ± 0.36 mN/m
[1]; x2 = 0.4024
  surface tension liquid-gas: 24.76 ± 0.35 mN/m
[1]; x2 = 0.4983
  surface tension liquid-gas: 24.18 ± 0.34 mN/m
[1]; x2 = 0.5957
  surface tension liquid-gas: 23.56 ± 0.34 mN/m
[1]; x2 = 0.7013
  surface tension liquid-gas: 22.87 ± 0.33 mN/m
[1]; x2 = 0.7952
  surface tension liquid-gas: 22.26 ± 0.32 mN/m
[1]; x2 = 0.8987
  surface tension liquid-gas: 21.58 ± 0.32 mN/m

## CC(C)O [propan-2-ol]
[2]; Liquid
  mass density: 780.85 ± 0.16 kg/m3
  surface tension liquid-gas: 20.93 ± 0.31 mN/m

## Cc1ccc(C)cc1 [1,4-dimethylbenzene] + CC(C)(C)O
[1]; x2 = 0
  surface tension liquid-gas: 27.89 ± 0.38 mN/m
[1]; x2 = 0.1004
  surface tension liquid-gas: 26.69 ± 0.37 mN/m
[1]; x2 = 0.2113
  surface tension liquid-gas: 25.63 ± 0.36 mN/m
[1]; x2 = 0.3049
  surface tension liquid-gas: 24.73 ± 0.35 mN/m
[1]; x2 = 0.4065
  surface tension liquid-gas: 23.9 ± 0.34 mN/m
[1]; x2 = 0.498
  surface tension liquid-gas: 23.25 ± 0.33 mN/m
[1]; x2 = 0.6012
  surface tension liquid-gas: 22.5 ± 0.33 mN/m
[1]; x2 = 0.698
  surface tension liquid-gas: 21.82 ± 0.32 mN/m
[1]; x2 = 0.8007
  surface tension liquid-gas: 21.15 ± 0.31 mN/m
[1]; x2 = 0.9002
  surface tension liquid-gas: 20.58 ± 0.31 mN/m

## Cc1cccc(C)c1 [1,3-dimethylbenzene]
[2]; Liquid
  mass density: 859.79 ± 0.16 kg/m3
  surface tension liquid-gas: 28.36 ± 0.39 mN/m

## Cc1ccccc1C [1,2-dimethylbenzene] + CC(C)O
[1]; x2 = 0
  surface tension liquid-gas: 29.6 ± 0.4 mN/m
[1]; x2 = 0.0992
  surface tension liquid-gas: 28.21 ± 0.38 mN/m
[1]; x2 = 0.1988
  surface tension liquid-gas: 27.11 ± 0.37 mN/m
[1]; x2 = 0.3024
  surface tension liquid-gas: 26.07 ± 0.36 mN/m
[1]; x2 = 0.4004
  surface tension liquid-gas: 25.3 ± 0.35 mN/m
[1]; x2 = 0.4979
  surface tension liquid-gas: 24.54 ± 0.35 mN/m
[1]; x2 = 0.5971
  surface tension liquid-gas: 23.98 ± 0.34 mN/m
[1]; x2 = 0.6988
  surface tension liquid-gas: 23.15 ± 0.33 mN/m
[1]; x2 = 0.8
  surface tension liquid-gas: 22.4 ± 0.32 mN/m
[1]; x2 = 0.8896
  surface tension liquid-gas: 21.72 ± 0.32 mN/m

## Cc1ccccc1C [1,2-dimethylbenzene] + CC(C)(C)O
[1]; x2 = 0
  surface tension liquid-gas: 29.6 ± 0.4 mN/m
[1]; x2 = 0.1083
  surface tension liquid-gas: 27.8 ± 0.38 mN/m
[1]; x2 = 0.1992
  surface tension liquid-gas: 26.43 ± 0.36 mN/m
[1]; x2 = 0.3042
  surface tension liquid-gas: 25.27 ± 0.35 mN/m
[1]; x2 = 0.402
  surface tension liquid-gas: 24.32 ± 0.34 mN/m
[1]; x2 = 0.5007
  surface tension liquid-gas: 23.6 ± 0.34 mN/m
[1]; x2 = 0.5988
  surface tension liquid-gas: 22.82 ± 0.33 mN/m
[1]; x2 = 0.6992
  surface tension liquid-gas: 22.05 ± 0.32 mN/m
[1]; x2 = 0.8
  surface tension liquid-gas: 21.38 ± 0.31 mN/m
[1]; x2 = 0.8991
  surface tension liquid-gas: 20.71 ± 0.31 mN/m

## CC(C)(C)O [2-methylpropan-2-ol] + Cc1ccc(C)cc1
[1]; x1 = 1
  surface tension liquid-gas: 19.97 ± 0.3 mN/m

## CC(C)(C)O [2-methylpropan-2-ol] + Cc1ccccc1C
[1]; x1 = 1
  surface tension liquid-gas: 19.97 ± 0.3 mN/m

## Cc1ccccc1C [1,2-dimethylbenzene]
[2]; Liquid
  mass density: 875.92 ± 0.11 kg/m3
  surface tension liquid-gas: 29.6 ± 0.4 mN/m

## Cc1ccc(C)cc1 [1,4-dimethylbenzene] + CC(C)O
[1]; x2 = 0
  surface tension liquid-gas: 27.89 ± 0.38 mN/m
[1]; x2 = 0.1029
  surface tension liquid-gas: 26.82 ± 0.37 mN/m
[1]; x2 = 0.2014
  surface tension liquid-gas: 26.03 ± 0.36 mN/m
[1]; x2 = 0.2993
  surface tension liquid-gas: 25.32 ± 0.35 mN/m
[1]; x2 = 0.403
  surface tension liquid-gas: 24.63 ± 0.35 mN/m
[1]; x2 = 0.4979
  surface tension liquid-gas: 24.06 ± 0.34 mN/m
[1]; x2 = 0.5985
  surface tension liquid-gas: 23.45 ± 0.33 mN/m
[1]; x2 = 0.6991
  surface tension liquid-gas: 22.86 ± 0.33 mN/m
[1]; x2 = 0.7982
  surface tension liquid-gas: 22.22 ± 0.32 mN/m
[1]; x2 = 0.9047
  surface tension liquid-gas: 21.52 ± 0.32 mN/m

## CC(C)(C)O [2-methylpropan-2-ol]
[2]; Liquid
  mass density: 780.27 ± 0.16 kg/m3
[2]; Metastable liquid
  surface tension liquid-gas: 19.97 ± 0.3 mN/m

## CC(C)O [propan-2-ol] + Cc1ccccc1C
[1]; x1 = 1
  surface tension liquid-gas: 20.93 ± 0.31 mN/m

## Cc1cccc(C)c1 [1,3-dimethylbenzene] + CC(C)(C)O
[1]; x2 = 0
  surface tension liquid-gas: 28.36 ± 0.39 mN/m
[1]; x2 = 0.1028
  surface tension liquid-gas: 26.83 ± 0.37 mN/m
[1]; x2 = 0.201
  surface tension liquid-gas: 25.76 ± 0.36 mN/m
[1]; x2 = 0.3006
  surface tension liquid-gas: 24.84 ± 0.35 mN/m
[1]; x2 = 0.4009
  surface tension liquid-gas: 23.98 ± 0.34 mN/m
[1]; x2 = 0.4999
  surface tension liquid-gas: 23.21 ± 0.33 mN/m
[1]; x2 = 0.5994
  surface tension liquid-gas: 22.52 ± 0.33 mN/m
[1]; x2 = 0.6984
  surface tension liquid-gas: 21.84 ± 0.32 mN/m
[1]; x2 = 0.7981
  surface tension liquid-gas: 21.22 ± 0.31 mN/m
[1]; x2 = 0.895
  surface tension liquid-gas: 20.64 ± 0.31 mN/m

## CC(C)O [propan-2-ol] + Cc1ccc(C)cc1
[1]; x1 = 1
  surface tension liquid-gas: 20.93 ± 0.31 mN/m

## CC(C)(C)O [2-methylpropan-2-ol] + Cc1cccc(C)c1
[1]; x1 = 1
  surface tension liquid-gas: 19.97 ± 0.3 mN/m
